Series [1] relates to Influenza A virus H1N1 (H1N1 A/WSN/33 virus). As to the kind of experiment: Influenza A virus H1N1 mouse infection model (in vivo drug efficacy). Particulars: H1N1 A/WSN/33 infected BALB/c mice, 10 mg/kg oral twice a day Day 1 to Day 7, first dose 36 hr after infection.
In series [2] the test system is Influenza virus A/Weiss/43 (H1N1) strain. Kind of series: Influenza virus cytopathy (CPE) experiment. It is filed as cell-based.
Series [3] is described as follows: Solid stability test of crystal forms (high temperature, high humidity, light radiation, accelerated conditions; appearance, content, impurities, crystal form by XRPD). The series is classed as physicochemical. Conditions: for XPRD: crystal form found. An excerpt:
High Performance Liquid Chromatograph (HPLC) The analytic method is as follows: [table] [table] […] The sample was placed under high temperature, high humidity and acceleration conditions. The bottle was sealed with an aluminum foil, and some small holes were pierced on the aluminum foil to ensure that the sample could fully contact with the ambient air. The sample placed under light radiation was placed upright at room temperature and open to the air. The sample was exposed to a light source, and radiated with sufficient energy prior to taking samples for detection. Samples were taken at various time points for analysis, and the detection results were compared with the initial detection results obtained at Day 0. The investigation items include appearance, content and impurities. […] The sample was placed under high temperature, high humidity and acceleration conditions. The bottle was sealed with an aluminum foil, and some small holes were pierced on the aluminum foil to ensure that the sample could fully contact with the ambient air. The sample placed under light radiation was placed upright at room temperature and open to the air. The sample was exposed to a light source, and radiated with sufficient energy prior to taking samples for detection. Samples were taken at various time points for analysis, and the detection results were compared with the initial detection results obtained at Day 0. The investigation items include appearance, content and impurities. […] Samples were taken at various time points, and the test results were compared with the initial test results obtained at Day 0. […] The investigation items include appearance, impurities, and crystal forms.

The mark [4] stands for this setting: Acceleration test (40° C./relative humidity 75%, open), Day 12.
[5] abbreviates: High humidity (room temperature/relative humidity 92.5%, open), Day 12.
The mark [6] stands for this setting: High temperature (60° C., open), Day 12.
Where [7] appears, read: Light radiation (total illumination 1.2 × 10^6 Lux · hr), Day 12.

Results on 2 molecules are retold here after patent publication US11535613B2 (GUANGDONG RAYNOVENT BIOTECH CO., LTD., priority 2018, dated 2022).

As for `O=C(O)[C@H]1C2CCC(CC2)[C@@H]1Nc1nc(-c2n[nH]c3ncc(F)cc23)nc(C2CC2)c1F` [Compound 1], the “Rate of Weight Loss (Day 9)” value in series [1] (Day 9) is 4.8%. In series [1] (observed to Day 14), the “Survival Rate (%)” value worked out at 100%. Further, it took 0.013 nM to reach a half-maximal effect in series [2] (120 h, MDCK cells, influenza virus A/Weiss/43 (H1N1), 5 days, CCK8 cell viability) (EC50). Further, the “effect in the experiment of inhibiting influenza virus replication at a cell level” value in series [2] (result in words) is “positive effect”.
Consider `O=C(O)[C@H]1C2CCC(CC2)[C@@H]1Nc1nc(-c2n[nH]c3ncc(F)cc23)nc(C2CC2)c1F` [crystal form D], for which the Appearance result in series [3] (Acceleration test (40° C./relative humidity 75%, open), Day 5) is “Off-white solid”; in series [3] (setting [4]), “Off-white solid”; in series [3] (Day 0 (initial)), “Off-white solid”; in series [3] (High humidity (room temperature/relative humidity 92.5%, open), Day 5), “Off-white solid”; in series [3] (setting [5]) it was “Off-white solid”; in series [3] (High temperature (60° C., open), Day 5) it was “Off-white solid”. Also, the Appearance entry in series [3] (setting [6]) is recorded as “Off-white solid”; in series [3] (Light radiation (total illumination 1.2 × 10^6 Lux · hr), Day 5), “Off-white solid”; in series [3] (setting [7]), “Off-white solid”. In addition, the “Total Impurities (%)” value in series [3] (setting [4]) came out at 3.5%; in series [3] (Day 0 (initial)), 3.3%; in series [3] (setting [5]), 3.4%; in series [3] (setting [6]) it was 3.3%; in series [3] (setting [7]) it was 3.4%. Also, the “change of crystal form (XRPD detection)” value in series [3] (after the solid stability test conditions) was “does not change”. The XPRD entry in series [3] (setting [4]), in series [3] (Day 0 (initial)), in series [3] (setting [5]), in series [3] (setting [6]) and in series [3] (setting [7]) was “Crystal form D” each time. Moreover, in series [3] (high temperature, high humidity, light radiation and accelerated experiments), the “change in total impurity content” value is “almost no change”.
